For one test, the target named is Ephrin type-A receptor 4 (Homo sapiens, UniProt P54764). Kind of test: Induction of stabilization of recombinant EPHA4 (unknown origin) assessed as change in melting temperature by differential scanning fluorimetry assay. (In general: DSF heats the sample and reads unfolding from a dye or from intrinsic fluorescence.)
Test [1] addresses Ephrin type-A receptor 7 (Homo sapiens) (UniProt Q15375). As to the kind of experiment: Induction of stabilization of recombinant EPHA7 (unknown origin) assessed as change in melting temperature by differential scanning fluorimetry assay.
Test [2] addresses T1, Ephrin type-B receptor 3 (Homo sapiens) (UniProt P54753).
T1 sequence (whole entry): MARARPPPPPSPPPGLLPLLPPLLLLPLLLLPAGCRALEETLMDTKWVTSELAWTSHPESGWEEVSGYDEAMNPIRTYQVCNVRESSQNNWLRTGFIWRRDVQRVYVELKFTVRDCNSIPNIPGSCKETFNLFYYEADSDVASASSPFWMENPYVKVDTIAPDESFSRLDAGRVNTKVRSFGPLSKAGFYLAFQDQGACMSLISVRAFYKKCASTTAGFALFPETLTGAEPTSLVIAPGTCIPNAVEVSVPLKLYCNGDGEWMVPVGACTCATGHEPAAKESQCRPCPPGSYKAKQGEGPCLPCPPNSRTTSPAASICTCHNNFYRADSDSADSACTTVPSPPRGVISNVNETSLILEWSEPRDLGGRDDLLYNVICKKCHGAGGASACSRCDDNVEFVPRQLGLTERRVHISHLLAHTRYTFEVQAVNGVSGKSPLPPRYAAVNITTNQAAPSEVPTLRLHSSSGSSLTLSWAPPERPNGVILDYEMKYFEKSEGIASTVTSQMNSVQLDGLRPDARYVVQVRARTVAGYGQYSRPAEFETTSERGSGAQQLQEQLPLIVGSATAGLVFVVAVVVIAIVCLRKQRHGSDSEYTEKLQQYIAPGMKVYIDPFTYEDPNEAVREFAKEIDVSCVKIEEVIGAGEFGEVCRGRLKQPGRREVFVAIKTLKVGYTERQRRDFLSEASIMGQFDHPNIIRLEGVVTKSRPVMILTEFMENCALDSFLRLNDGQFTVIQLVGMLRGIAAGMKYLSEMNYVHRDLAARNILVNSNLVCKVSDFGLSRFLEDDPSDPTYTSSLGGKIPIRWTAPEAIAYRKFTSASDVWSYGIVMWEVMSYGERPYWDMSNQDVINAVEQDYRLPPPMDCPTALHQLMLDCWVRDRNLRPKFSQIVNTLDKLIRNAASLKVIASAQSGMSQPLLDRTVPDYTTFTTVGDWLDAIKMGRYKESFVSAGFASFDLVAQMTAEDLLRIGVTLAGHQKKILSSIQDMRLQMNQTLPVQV
As to the kind of experiment: Induction of stabilization of recombinant EPHB3 (unknown origin) assessed as change in melting temperature by differential scanning fluorimetry assay.

Test [3] has as its target Vascular endothelial growth factor receptor 1 (Homo sapiens, UniProt P17948). Kind of test: Induction of stabilization of recombinant FLT1 (unknown origin) assessed as change in melting temperature by differential scanning fluorimetry assay.
The test system of the next test is dengue virus type 2. As to the kind of experiment: Antiviral activity against DENV-2 New Guinea C infected in human Huh-7 cells assessed as reduction in virus induced cytopathic effect preincubated with cells for 1 hr followed by viral infection and measured after 45 to 48 hrs by luciferase assay. Format: functional, organism-based. Conditions: for EC90: time 45-48 hrs. For orientation: Cytopathic effects are the visible damage that an infection or toxin causes in cultured cells.

The test system of the next test is Huh-7. As to the kind of experiment: Cytotoxicity against human Huh-7 cells assessed as reduction in cell viability by alamar blue reagent based analysis. Format: functional.
For another test, the target named is Ephrin type-A receptor 2 (Homo sapiens, UniProt P29317).
Test [4] has as its target Ephrin type-A receptor 5 (Homo sapiens) (UniProt P54756).
Description: Induction of stabilization of recombinant EPHA5 (unknown origin) assessed as change in melting temperature by differential scanning fluorimetry assay
In test [5] the target is Fibroblast growth factor receptor 1 (Homo sapiens, UniProt P11362).
Chain of Fibroblast growth factor receptor 1 (P11362 22-822 limits assumed): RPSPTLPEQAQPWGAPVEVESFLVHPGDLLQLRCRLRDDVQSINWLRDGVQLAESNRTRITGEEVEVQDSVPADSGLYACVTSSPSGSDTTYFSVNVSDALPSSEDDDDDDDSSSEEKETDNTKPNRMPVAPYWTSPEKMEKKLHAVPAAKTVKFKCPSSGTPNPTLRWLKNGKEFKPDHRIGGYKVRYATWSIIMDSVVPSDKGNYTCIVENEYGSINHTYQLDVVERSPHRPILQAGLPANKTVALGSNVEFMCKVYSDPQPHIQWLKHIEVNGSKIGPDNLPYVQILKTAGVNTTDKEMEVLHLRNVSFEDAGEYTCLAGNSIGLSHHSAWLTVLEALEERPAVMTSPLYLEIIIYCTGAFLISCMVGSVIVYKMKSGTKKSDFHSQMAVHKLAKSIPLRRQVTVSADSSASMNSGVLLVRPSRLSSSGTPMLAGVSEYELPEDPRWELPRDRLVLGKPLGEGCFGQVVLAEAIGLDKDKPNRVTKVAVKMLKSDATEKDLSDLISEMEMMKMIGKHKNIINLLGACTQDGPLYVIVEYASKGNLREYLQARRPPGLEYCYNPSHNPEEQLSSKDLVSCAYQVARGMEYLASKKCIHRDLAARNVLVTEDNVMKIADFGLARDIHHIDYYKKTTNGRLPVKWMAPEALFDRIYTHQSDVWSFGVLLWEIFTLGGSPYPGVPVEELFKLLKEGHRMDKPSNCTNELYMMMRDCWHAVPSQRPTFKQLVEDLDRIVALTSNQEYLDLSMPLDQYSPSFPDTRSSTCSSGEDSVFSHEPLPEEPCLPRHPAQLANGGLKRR
Description: Induction of stabilization of recombinant FGFR1 (unknown origin) assessed as change in melting temperature by differential scanning fluorimetry assay
For test [6], the target named is Fibroblast growth factor receptor 2 (Homo sapiens) (UniProt P21802).
Chain of Fibroblast growth factor receptor 2 (Homo sapiens) (P21802 22-821 limits assumed): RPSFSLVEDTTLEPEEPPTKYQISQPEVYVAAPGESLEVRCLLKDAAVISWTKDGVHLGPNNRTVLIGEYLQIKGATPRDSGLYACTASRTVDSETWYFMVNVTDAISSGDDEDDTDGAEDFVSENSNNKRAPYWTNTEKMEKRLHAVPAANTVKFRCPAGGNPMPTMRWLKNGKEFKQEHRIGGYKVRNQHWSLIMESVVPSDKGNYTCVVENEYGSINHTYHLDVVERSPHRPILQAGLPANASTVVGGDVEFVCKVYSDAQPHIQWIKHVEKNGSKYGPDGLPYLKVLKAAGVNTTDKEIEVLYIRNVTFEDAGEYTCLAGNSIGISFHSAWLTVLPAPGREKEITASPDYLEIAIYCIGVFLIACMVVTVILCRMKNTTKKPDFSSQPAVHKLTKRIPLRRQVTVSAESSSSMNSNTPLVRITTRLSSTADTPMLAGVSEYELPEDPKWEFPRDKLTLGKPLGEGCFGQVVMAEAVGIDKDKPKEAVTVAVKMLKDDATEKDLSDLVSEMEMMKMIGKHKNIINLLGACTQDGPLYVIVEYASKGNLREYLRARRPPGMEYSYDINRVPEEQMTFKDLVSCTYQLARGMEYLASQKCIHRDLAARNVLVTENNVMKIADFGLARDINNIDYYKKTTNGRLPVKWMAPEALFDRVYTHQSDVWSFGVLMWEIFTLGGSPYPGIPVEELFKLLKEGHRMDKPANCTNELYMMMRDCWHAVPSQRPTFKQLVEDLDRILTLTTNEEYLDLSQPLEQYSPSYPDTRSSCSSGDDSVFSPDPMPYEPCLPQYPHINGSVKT
Description: Induction of stabilization of recombinant FGFR2 (unknown origin) assessed as change in melting temperature by differential scanning fluorimetry assay
The target in test [7] is T2, Cyclin-G-associated kinase (Homo sapiens) (UniProt O14976).
T2 sequence (whole entry): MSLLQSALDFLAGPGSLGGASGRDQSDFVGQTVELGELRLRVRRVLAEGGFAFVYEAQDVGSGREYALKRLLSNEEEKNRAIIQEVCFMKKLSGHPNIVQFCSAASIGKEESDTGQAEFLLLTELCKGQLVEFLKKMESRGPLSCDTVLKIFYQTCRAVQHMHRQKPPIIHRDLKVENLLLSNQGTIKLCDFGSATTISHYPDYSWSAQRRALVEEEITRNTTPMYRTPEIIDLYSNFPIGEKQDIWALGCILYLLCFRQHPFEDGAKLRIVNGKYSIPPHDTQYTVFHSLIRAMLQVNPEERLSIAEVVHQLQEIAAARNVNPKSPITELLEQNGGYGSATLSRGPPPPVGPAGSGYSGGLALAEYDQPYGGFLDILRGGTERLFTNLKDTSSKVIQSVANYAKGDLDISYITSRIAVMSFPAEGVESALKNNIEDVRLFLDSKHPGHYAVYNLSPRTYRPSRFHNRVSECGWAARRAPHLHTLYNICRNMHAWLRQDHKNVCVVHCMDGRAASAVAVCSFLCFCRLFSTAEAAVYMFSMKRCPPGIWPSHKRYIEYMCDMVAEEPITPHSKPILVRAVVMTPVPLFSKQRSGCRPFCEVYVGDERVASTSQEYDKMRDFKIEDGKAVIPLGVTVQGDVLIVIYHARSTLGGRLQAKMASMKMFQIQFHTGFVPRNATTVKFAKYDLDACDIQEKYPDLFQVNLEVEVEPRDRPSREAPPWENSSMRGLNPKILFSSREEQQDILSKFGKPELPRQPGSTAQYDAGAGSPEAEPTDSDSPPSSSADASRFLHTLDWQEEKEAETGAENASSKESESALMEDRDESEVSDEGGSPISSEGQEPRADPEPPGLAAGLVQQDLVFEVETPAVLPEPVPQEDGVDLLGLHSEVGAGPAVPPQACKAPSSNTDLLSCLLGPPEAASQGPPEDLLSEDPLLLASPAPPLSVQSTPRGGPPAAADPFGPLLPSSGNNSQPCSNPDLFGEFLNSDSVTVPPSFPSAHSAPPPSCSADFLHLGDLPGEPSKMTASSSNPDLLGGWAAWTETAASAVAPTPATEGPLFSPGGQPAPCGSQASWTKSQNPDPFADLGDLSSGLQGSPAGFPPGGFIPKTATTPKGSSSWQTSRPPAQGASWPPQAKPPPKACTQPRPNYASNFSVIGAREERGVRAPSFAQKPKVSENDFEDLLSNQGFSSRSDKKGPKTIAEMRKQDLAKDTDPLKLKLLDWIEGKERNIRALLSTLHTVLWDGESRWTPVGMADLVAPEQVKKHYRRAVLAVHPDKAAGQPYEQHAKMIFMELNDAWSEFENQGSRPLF
Description: Induction of stabilization of recombinant GAK (unknown origin) assessed as change in melting temperature by differential scanning fluorimetry assay

pEC50: −log10 of the molar value. Where only a bound is given, the exact number is not on record here.

The values that follow come from ChEMBL document CHEMBL5550200, “Back-Pocket Optimization of 2-Aminopyrimidine-Based Macrocycles Leads to Potent EPHA2/GAK Kinase Inhibitors” (J Med Chem, 2024).

Chain of Ephrin type-A receptor 4 (P54764 whole entry): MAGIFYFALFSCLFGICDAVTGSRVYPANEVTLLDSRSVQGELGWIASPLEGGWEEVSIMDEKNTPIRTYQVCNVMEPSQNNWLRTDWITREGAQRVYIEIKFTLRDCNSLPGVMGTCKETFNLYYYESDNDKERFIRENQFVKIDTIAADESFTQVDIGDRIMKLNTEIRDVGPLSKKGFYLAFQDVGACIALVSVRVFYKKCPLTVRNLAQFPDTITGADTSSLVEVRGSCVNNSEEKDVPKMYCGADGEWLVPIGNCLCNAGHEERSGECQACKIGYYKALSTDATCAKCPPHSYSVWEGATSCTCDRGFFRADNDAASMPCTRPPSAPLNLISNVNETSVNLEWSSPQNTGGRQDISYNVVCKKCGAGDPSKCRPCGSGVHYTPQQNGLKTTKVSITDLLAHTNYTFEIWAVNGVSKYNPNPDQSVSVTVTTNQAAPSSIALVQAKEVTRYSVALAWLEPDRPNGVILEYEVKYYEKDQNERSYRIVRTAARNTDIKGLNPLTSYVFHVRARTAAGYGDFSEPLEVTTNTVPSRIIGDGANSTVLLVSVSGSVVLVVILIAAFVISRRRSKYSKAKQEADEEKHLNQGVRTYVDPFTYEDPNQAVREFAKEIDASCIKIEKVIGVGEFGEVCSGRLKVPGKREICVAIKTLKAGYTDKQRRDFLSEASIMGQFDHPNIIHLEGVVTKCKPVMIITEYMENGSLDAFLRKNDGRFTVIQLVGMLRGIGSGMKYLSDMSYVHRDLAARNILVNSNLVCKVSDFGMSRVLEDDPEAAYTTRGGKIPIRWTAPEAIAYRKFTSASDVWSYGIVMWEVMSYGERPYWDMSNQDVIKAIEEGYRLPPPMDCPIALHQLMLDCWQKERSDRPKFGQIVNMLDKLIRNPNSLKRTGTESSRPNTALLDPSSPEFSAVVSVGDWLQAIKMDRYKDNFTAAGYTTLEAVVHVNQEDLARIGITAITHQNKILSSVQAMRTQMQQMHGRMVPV
Chain of Ephrin type-A receptor 7 (Homo sapiens) (Q15375 28-998 limits assumed): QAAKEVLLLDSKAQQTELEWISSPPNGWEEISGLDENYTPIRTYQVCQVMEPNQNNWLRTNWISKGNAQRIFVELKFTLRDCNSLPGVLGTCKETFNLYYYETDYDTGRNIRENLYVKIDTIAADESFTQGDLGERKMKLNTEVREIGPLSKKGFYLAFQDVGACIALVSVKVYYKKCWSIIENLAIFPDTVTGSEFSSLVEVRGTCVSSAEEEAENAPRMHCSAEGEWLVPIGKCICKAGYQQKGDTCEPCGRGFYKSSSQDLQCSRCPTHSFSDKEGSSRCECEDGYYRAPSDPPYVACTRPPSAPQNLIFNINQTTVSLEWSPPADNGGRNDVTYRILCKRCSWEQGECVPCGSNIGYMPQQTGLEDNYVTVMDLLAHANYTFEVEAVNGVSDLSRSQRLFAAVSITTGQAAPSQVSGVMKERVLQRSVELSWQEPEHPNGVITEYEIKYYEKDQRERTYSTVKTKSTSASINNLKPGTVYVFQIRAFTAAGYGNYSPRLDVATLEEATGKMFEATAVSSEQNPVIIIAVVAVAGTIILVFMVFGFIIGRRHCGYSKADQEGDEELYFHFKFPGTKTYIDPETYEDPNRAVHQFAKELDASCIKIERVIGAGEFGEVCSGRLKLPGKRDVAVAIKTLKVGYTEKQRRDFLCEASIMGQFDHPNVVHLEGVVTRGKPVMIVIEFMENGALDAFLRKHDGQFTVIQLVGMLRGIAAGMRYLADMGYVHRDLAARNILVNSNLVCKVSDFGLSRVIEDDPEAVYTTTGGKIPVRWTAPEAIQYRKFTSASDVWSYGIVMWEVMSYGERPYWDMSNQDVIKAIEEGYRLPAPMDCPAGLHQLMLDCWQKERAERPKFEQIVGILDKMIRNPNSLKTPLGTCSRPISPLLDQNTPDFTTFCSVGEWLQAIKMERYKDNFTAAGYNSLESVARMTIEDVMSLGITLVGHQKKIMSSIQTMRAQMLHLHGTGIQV
Chain of Ephrin type-A receptor 5 (Homo sapiens) (P54756 whole entry): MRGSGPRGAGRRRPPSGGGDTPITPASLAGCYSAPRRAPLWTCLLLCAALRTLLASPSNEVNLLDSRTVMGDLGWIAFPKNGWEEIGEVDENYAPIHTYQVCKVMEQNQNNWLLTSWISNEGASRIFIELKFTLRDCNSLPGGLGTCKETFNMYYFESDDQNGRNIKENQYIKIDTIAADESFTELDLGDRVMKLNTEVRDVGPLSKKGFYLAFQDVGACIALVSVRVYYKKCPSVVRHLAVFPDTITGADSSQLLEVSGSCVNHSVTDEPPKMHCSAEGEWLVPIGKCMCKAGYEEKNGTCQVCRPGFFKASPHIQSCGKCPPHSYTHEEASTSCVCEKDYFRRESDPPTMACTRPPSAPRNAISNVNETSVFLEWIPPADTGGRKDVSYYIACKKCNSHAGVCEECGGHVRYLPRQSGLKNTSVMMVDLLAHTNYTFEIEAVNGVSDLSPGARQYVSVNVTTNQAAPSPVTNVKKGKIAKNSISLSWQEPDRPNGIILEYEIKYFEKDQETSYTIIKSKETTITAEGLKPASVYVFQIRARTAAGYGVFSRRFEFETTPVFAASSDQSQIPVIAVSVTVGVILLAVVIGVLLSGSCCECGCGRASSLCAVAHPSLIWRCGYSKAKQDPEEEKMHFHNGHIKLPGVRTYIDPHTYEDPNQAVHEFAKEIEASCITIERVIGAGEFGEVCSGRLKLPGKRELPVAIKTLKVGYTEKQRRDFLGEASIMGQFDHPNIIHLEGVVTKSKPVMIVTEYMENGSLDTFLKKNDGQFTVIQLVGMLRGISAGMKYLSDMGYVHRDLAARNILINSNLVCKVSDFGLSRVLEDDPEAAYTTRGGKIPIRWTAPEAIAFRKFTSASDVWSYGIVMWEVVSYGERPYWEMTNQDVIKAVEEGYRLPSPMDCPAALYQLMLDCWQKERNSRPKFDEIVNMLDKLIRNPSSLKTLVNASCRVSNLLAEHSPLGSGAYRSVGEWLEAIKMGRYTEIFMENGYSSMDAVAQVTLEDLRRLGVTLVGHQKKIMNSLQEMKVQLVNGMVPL
Description for Ephrin type-A receptor 2: Induction of stabilization of recombinant EPHA2 (D596 to G900 residues) (unknown origin) expressed in Escherichia coli rosetta BL21(D3)-R3-pRARE2 competent cells assessed as change in melting temperature by differential scanning fluorimetry assay

As usually defined, the pEC50 is the negative decadic logarithm of the EC50, by convention in mol/L. A word on the EC90: it is the point of the concentration-response curve where the effect stands at 90%. A word on the CC50: it is the concentration that lowers cell viability or growth by half. As for `O=S1(=O)NCCCNc2nc(ncc2-c2ccc(Cl)c(Cl)c2)Nc2cccc1c2`, the deltaTm at Ephrin type-A receptor 4 stood at 2.9 K; in [1], 2.4 K; in test [2], 3.2 K; in test [3], 3.6 K; at Ephrin type-A receptor 2, 6.2 K; in test [4], 3.4 K. The deltaTm in test [5] is 2.8 K; in test [6], 3.9 K; in [7] it was 3.6 K. Also, the negative logarithm of the EC50 (pEC50) in the test on dengue virus type 2 is 5.43. For the same molecule, the EC90 in the test with dengue virus type 2 stood at 9 µM. Moreover, the CC50 in the test on Huh-7 was over 10 µM.
Consider `COc1c(F)ccc(-c2cnc3nc2NCCCNS(=O)(=O)c2cccc(c2)N3)c1F`, for which the deltaTm is 4.9 K at Ephrin type-A receptor 4; -2.5 K in test [1]; 4.8 K in test [2]; 8.8 K in test [3]; 8.8 K at Ephrin type-A receptor 2; 5.4 K in test [4]. Moreover, the deltaTm is 5.2 K in test [5], 5.8 K in test [6] and 6.8 K in test [7]. For the same molecule, in the test with dengue virus type 2, the pEC50 was 5.74. The EC90 in the test on dengue virus type 2 is 2.9 µM. For the same molecule, the cytotoxic concentration (CC50) in the test on Huh-7 was 2.9 µM.
As to `COc1cc(-c2cnc3nc2NCCCNS(=O)(=O)c2cccc(c2)N3)c(F)cc1F`, the deltaTm at Ephrin type-A receptor 4 came to 2.8 K; in [1] it was 0.4 K; in [2], 3.9 K; in test [3] it was 3.4 K; at Ephrin type-A receptor 2 it was 6.9 K; in test [4] it was 5 K. The deltaTm in [5] was 2.7 K; in test [6], 3.6 K; in [7], 7.3 K. For the same molecule, the negative logarithm of the EC50 (pEC50) with dengue virus type 2 was under 5.00. For the same molecule, the EC90 in the test on dengue virus type 2 is over 10 µM. Also, the CC50 with Huh-7 is over 10 µM.
In the case of `COc1cc(-c2cnc3nc2NCCCNS(=O)(=O)c2cc(ccc2O)N3)ccc1F`, the deltaTm amounted to 3.3 K on Ephrin type-A receptor 4; 0.3 K in test [1]; 4.2 K in [2]; 3 K in [3]; 7.9 K on Ephrin type-A receptor 2; 4.7 K in test [4]. Besides, the deltaTm stood at 1.9 K in test [5], 3 K in test [6] and 8 K in [7]. Further, in the test on dengue virus type 2, the negative logarithm of the EC50 (pEC50) is under 5.00. In addition, the EC90 with dengue virus type 2 is over 10 µM. In the test on Huh-7, the half-maximal cytotoxic concentration (CC50) is over 10 µM.
